ChEMBL document CHEMBL4229383, “Antiproliferative efficacy of curcumin mimics through microtubule destabilization” (Eur J Med Chem, 2018)
Activity calls are given as the source filed them. The calls are words filed in the database; no cut-off is given here.

Columns and labels:
[1] = system: A549; test: Cytotoxicity against human A549 cells preincubated for 4 hrs followed by incubation in compound free media for 24 hrs by MTT assay; type: functional, cell-based
[2] = system: DLD-1; test: Cytotoxicity against human DLD1 cells preincubated for 4 hrs followed by incubation in compound free media for 24 hrs by MTT assay; type: functional, cell-based
[3] = system: WRL68; test: Cytotoxicity against human WRL68 cells preincubated for 4 hrs followed by incubation in compound free media for 24 hrs by MTT assay; type: functional, cell-based
[4] = system: MCF7; test: Cytotoxicity against human MCF7 cells preincubated for 4 hrs followed by incubation in compound free media for 24 hrs by MTT assay; type: functional, cell-based
[5] = system: A-431; test: Cytotoxicity against human A431 cells preincubated for 4 hrs followed by incubation in compound free media for 24 hrs by MTT assay; type: functional, cell-based
[6] = species: Sus scrofa; test: Inhibition of porcine brain tubulin polymerization at 20 uM measured every min for 1 hr
[7] = Inhibition of porcine brain tubulin polymerization measured every min for 1 hr; design: species or system Sus scrofa
[8] = system: Mus musculus; test: Toxicity in Swiss mouse implanted with mouse EAC cells assessed as body weight at 20 mg/kg, ip measured on day 12 post dose (reference value: 35.5g); type: organism-based; details: in vivo
[9] = system: Mus musculus; test: Toxicity in Swiss mouse implanted with mouse EAC cells assessed as body weight at 20 mg/kg, ip measured on day 9 post dose (reference value: 30.55g); type: organism-based; details: in vivo
[10] = system: Mus musculus; test: Toxicity in Swiss mouse implanted with mouse EAC solid tumor cells assessed as body weight at 22 mg/kg, ip measured on day 9 post dose (reference value: 26.7 g); type: organism-based; details: in vivo
[11] = system: Ehrlich; test: Antitumor activity against mouse EAC cells implanted in Swiss mouse assessed as solid tumor growth inhibition at 22 mg/kg, ip from day 1 to 9 and measured on day 13 post dose relative to control; type: functional; details: read-out: TGI
[12] = system: Mus musculus; test: Toxicity in Swiss mouse implanted with mouse EAC solid tumor cells assessed as body weight at 22 mg/kg, ip from day 1 to 9 and measured on day 13 post dose (reference value: 26.9g); type: organism-based; details: in vivo
[13] = system: Mus musculus; test: Toxicity in Swiss mouse implanted with mouse EAC cells assessed as mortality at 20 mg/kg, ip from day 1 to 9 and measured on day 12 post dose; type: organism-based; details: in vivo
[14] = system: Mus musculus; test: Toxicity in Swiss mouse implanted with mouse EAC cells assessed as body weight at 20 mg/kg, ip measured on day 12 post dose (reference value: 32.5g); type: organism-based; details: in vivo
[15] = system: Mus musculus; test: Toxicity in Swiss mouse implanted with mouse EAC cells assessed as body weight at 20 mg/kg, ip measured on day 1 post dose (reference value: 22g); type: organism-based; details: in vivo
[16] = system: Ehrlich; test: Antitumor activity against mouse EAC cells implanted in Swiss mouse assessed as tumor growth inhibition at 20 mg/kg, ip from day 1 to 9 and measured on day 12 post dose relative to control; type: functional; details: read-out: TGI
[17] = system: Mus musculus; test: Toxicity in Swiss mouse implanted with mouse EAC cells assessed as body weight at 20 mg/kg, ip measured on day 5 post dose (reference value: 23.7g); type: organism-based; details: in vivo
[18] = system: Mus musculus; test: Toxicity in Swiss mouse implanted with mouse EAC solid tumor cells assessed as body weight at 22 mg/kg, ip measured on day 1 post dose (reference value: 25 g); type: organism-based; details: in vivo
[19] = system: Mus musculus; test: Toxicity in Swiss mouse implanted with mouse EAC cells assessed as body weight at 20 mg/kg, ip measured on day 5 post dose (reference value: 26.33g); type: organism-based; details: in vivo
[20] = system: Mus musculus; test: Toxicity in Swiss mouse implanted with mouse EAC cells assessed as body weight at 20 mg/kg, ip measured on day 9 post dose (reference value: 28.66g); type: organism-based; details: in vivo
[21] = system: Mus musculus; test: Toxicity in Swiss mouse implanted with mouse EAC cells assessed as body weight at 20 mg/kg, ip measured on day 1 post dose (reference value: 24.77g); type: organism-based; details: in vivo
[22] = system: Mus musculus; test: Toxicity in Swiss mouse implanted with mouse EAC solid tumor cells assessed as body weight at 22 mg/kg, ip measured on day 5 post dose (reference value: 26.7 g); type: organism-based; details: in vivo

SMILES | IC50 [1] [µM] | IC50 [2] [µM] | IC50 [3] [µM] | IC50 [4] [µM] | IC50 [5] [µM] | also measured
COc1cc(/C=C/C(=O)CC(=O)/C=C/c2ccc(O)cc2)ccc1O | 28.2 | > 40 | 26.3 | 92.1 | > 100 | –
O=C(/C=C/c1ccc(/C=C/C(=O)c2ccc3c(c2)OCO3)cc1)c1ccc2c(c1)OCO2 | > 100 | > 40 | 80.1 | 30.6 | > 100 | –
O=C(/C=C/c1ccc2c(c1)OCO2)c1cccc(C(=O)/C=C/c2ccc3c(c2)OCO3)c1 | 18.7 | 16.5 | > 100 | > 100 | 10 | –
O=C(/C=C/c1ccc(O)cc1)CC(=O)/C=C/c1ccc(O)cc1 [BISDEMETHOXYCURCUMIN] | – | > 40 | 45.4 | 48.9 | > 100 | –
COc1cc(/C=C/C(=O)CC(=O)/C=C/c2ccc(O)c(OC)c2)ccc1O [CURCUMIN] | 43.9 | > 40 | 27.8 | 22.1 | > 100 | inhibition [6]: Active; IC50 [7]: 5.12 µM
O=c1[nH]cc(F)c(=O)[nH]1 [FLUOROURACIL] | – | – | – | – | – | Activity [8]: 24.14 g; Activity [9]: 24.57 g; Activity [10]: 24.71 g; inhibition in vivo at 22 mg/kg [11]: 51%; Activity [12]: 24.85 g; Activity [13]: Non-Toxic; Activity [14]: 21.42 g; Activity [15]: 22.85 g; inhibition in vivo at 20 mg/kg [16]: 96.4 to 96.8%; Activity [17]: 22.57 g; Activity [18]: 26.42 g; Activity [19]: 25.85 g; Activity [20]: 21.71 g; Activity [21]: 25.85 g; Activity [22]: 25.14 g
COc1cc([C@@H]2c3cc4c(cc3[C@H](O)[C@H]3COC(=O)[C@H]23)OCO4)cc(OC)c1OC [PODOFILOX] | 5.61 | 0.11 | 3.02 | 4.16 | > 100 | IC50 [7]: 0.78 µM
CC/C(=C(\c1ccccc1)c1ccc(OCCN(C)C)cc1)c1ccccc1 [TAMOXIFEN] | – | 16.3 | – | 8.61 | > 100 | –
